Results from ChEMBL document CHEMBL3885881, “DrugMatrix”.

Organism: Rattus norvegicus
Assay type: toxicity, organism-based, Sprague-Dawley
Details: in vivo, 24 h, time 1 day; for ABSOLUTE EOSINOPHIL / ABSOLUTE LYMPHOCYTE / ABSOLUTE MONOCYTE / ABSOLUTE SEGMENTED NEUTROPHIL / BASOPHIL / EOSINOPHIL / ERYTHROCYTE COUNT / HEMATOCRIT / HEMOGLOBIN / LEUKOCYTE COUNT / LYMPHOCYTE / MEAN CORPUSCULAR HEMOGLOBIN / MEAN CORPUSCULAR HEMOGLOBIN CONCENTRATION / MEAN CORPUSCULAR VOLUME / MONOCYTE / NEUTROPHIL / NUCLEATED RED BLOOD CELLS / PLATELET COUNT / ABSOLUTE BASOPHIL: tissue Blood; for ALANINE AMINOTRANSFERASE / ALBUMIN / ALKALINE PHOSPHATASE / ASPARTATE AMINOTRANSFERASE / BLOOD UREA NITROGEN / CARBON DIOXIDE / CHLORIDE / CHOLESTEROL / CREATININE / GLUCOSE / LACTATE DEHYDROGENASE / LIPASE / PHOSPHORUS / POTASSIUM / SODIUM / TOTAL BILIRUBIN / TOTAL PROTEIN / URIC ACID / CREATINE PHOSPHOKINASE: tissue Plasma
[1] = sc, 0 mg/kg, vehicle control, route mini-PUMP - SUBCUTANEOUS, dose level Control, vehicle 100 % SALINE
[2] = sc, 1.75 mg/kg, route mini-PUMP - SUBCUTANEOUS, dose level High, vehicle 100 % SALINE
[3] = po, 0 mg/kg, vehicle control, route oral GAVAGE, dose level Control, […]
[4] = po, 900 mg/kg, route oral GAVAGE, dose level High, […]

Description: DrugMatrix - Regimen: Single

Structure (SMILES): NC[C@H](O)c1ccc(O)c(O)c1 [NOREPINEPHRINE]
- ABSOLUTE EOSINOPHIL [1]: 26.17 CELLS/uL
- ABSOLUTE LYMPHOCYTE [1]: 10985.83 CELLS/uL
- ABSOLUTE MONOCYTE [1]: 234.5 CELLS/uL
- ABSOLUTE SEGMENTED NEUTROPHIL [1]: 1753.5 CELLS/uL
- BASOPHIL [1]: 0%
- EOSINOPHIL [1]: 0.17%
- ERYTHROCYTE COUNT [1]: 5.64 x10E6/uL
- HEMATOCRIT [1]: 34.52%
- HEMOGLOBIN [1]: 12.68 G/DL
- LEUKOCYTE COUNT [1]: 13 x10E3/uL
- LYMPHOCYTE [1]: 84.5%
- MEAN CORPUSCULAR HEMOGLOBIN [1]: 22.5 pg
- MEAN CORPUSCULAR HEMOGLOBIN CONCENTRATION [1]: 36.78 G/DL
- MEAN CORPUSCULAR VOLUME [1]: 61.18 fL
- MONOCYTE [1]: 1.83%
- NEUTROPHIL [1]: 13.5%
- NUCLEATED RED BLOOD CELLS [1]: 0.17 /100WBC
- PLATELET COUNT [1]: 679.17 x10E3/uL
- ALANINE AMINOTRANSFERASE [1]: 42.67 u/L
- ALBUMIN [1]: 3.77 G/DL
- ALKALINE PHOSPHATASE [1]: 291.17 u/L
- ASPARTATE AMINOTRANSFERASE [1]: 74.5 u/L
- BLOOD UREA NITROGEN [1]: 15.33 mg/dL
- CARBON DIOXIDE [1]: 30 mmol/L
- CHLORIDE [1]: 100.83 MEQ/L
- CHOLESTEROL [1]: 65.33 mg/dL
- CREATININE [1]: 0.15 mg/dL
- GLUCOSE [1]: 179.83 mg/dL
- LACTATE DEHYDROGENASE [1]: 162.67 u/L
- LIPASE [1]: 8.5 u/L
- PHOSPHORUS [1]: 12.2 mg/dL
- POTASSIUM [1]: 5.73 MEQ/L
- SODIUM [1]: 144.7 MEQ/L
- TOTAL BILIRUBIN [1]: 0.15 mg/dL
- TOTAL PROTEIN [1]: 5.87 G/DL
- URIC ACID [1]: 1.93 mg/dL
- ABSOLUTE EOSINOPHIL [2]: 128.33 CELLS/uL
- ABSOLUTE LYMPHOCYTE [2]: 11603.67 CELLS/uL
- ABSOLUTE MONOCYTE [2]: 444.67 CELLS/uL
- ABSOLUTE SEGMENTED NEUTROPHIL [2]: 3490 CELLS/uL
- BASOPHIL [2]: 0%
- EOSINOPHIL [2]: 1%
- ERYTHROCYTE COUNT [2]: 6.6 x10E6/uL
- HEMATOCRIT [2]: 39.53%
- HEMOGLOBIN [2]: 14.47 G/DL
- LEUKOCYTE COUNT [2]: 15.67 x10E3/uL
- LYMPHOCYTE [2]: 74%
- MEAN CORPUSCULAR HEMOGLOBIN [2]: 21.97 pg
- MEAN CORPUSCULAR HEMOGLOBIN CONCENTRATION [2]: 36.6 G/DL
- MEAN CORPUSCULAR VOLUME [2]: 60.07 fL
- MONOCYTE [2]: 3%
- NEUTROPHIL [2]: 22%
- NUCLEATED RED BLOOD CELLS [2]: 0 /100WBC
- PLATELET COUNT [2]: 1126 x10E3/uL
- ALANINE AMINOTRANSFERASE [2]: 33 u/L
- ALBUMIN [2]: 4.03 G/DL
- ALKALINE PHOSPHATASE [2]: 413.33 u/L
- ASPARTATE AMINOTRANSFERASE [2]: 77.33 u/L
- BLOOD UREA NITROGEN [2]: 10.33 mg/dL
- CARBON DIOXIDE [2]: 27.67 mmol/L
- CHLORIDE [2]: 101 MEQ/L
- CHOLESTEROL [2]: 102 mg/dL
- CREATININE [2]: 0.12 mg/dL
- GLUCOSE [2]: 268 mg/dL
- LACTATE DEHYDROGENASE [2]: 247.67 u/L
- LIPASE [2]: 9 u/L
- PHOSPHORUS [2]: 14.8 mg/dL
- POTASSIUM [2]: 6.26 MEQ/L
- SODIUM [2]: 146.7 MEQ/L
- TOTAL BILIRUBIN [2]: 0.13 mg/dL
- TOTAL PROTEIN [2]: 6.4 G/DL
- URIC ACID [2]: 3.1 mg/dL

Structure (SMILES): Clc1ccc(Cl)cc1 [1,4-DICHLOROBENZENE]
- ABSOLUTE BASOPHIL [3]: 46.7 cells/µL
- ABSOLUTE EOSINOPHIL [3]: 130 cells/µL
- ABSOLUTE LYMPHOCYTE [3]: 8720 cells/µL
- ABSOLUTE MONOCYTE [3]: 140 cells/µL
- BASOPHIL [3]: 0.43%
- EOSINOPHIL [3]: 1.33%
- ERYTHROCYTE COUNT [3]: 6.45 x10E6/uL
- HEMATOCRIT [3]: 42.2%
- HEMOGLOBIN [3]: 13.33 G/DL
- LEUKOCYTE COUNT [3]: 10.59 x10E3/uL
- LYMPHOCYTE [3]: 82.13%
- MEAN CORPUSCULAR HEMOGLOBIN [3]: 20.67 pg
- MEAN CORPUSCULAR HEMOGLOBIN CONCENTRATION [3]: 31.6 G/DL
- MEAN CORPUSCULAR VOLUME [3]: 65.4 fL
- MONOCYTE [3]: 1.37%
- NEUTROPHIL [3]: 14.3%
- PLATELET COUNT [3]: 1048.67 x10E3/uL
- ALANINE AMINOTRANSFERASE [3]: 44 u/L
- ALBUMIN [3]: 3.93 G/DL
- ALKALINE PHOSPHATASE [3]: 551.33 u/L
- ASPARTATE AMINOTRANSFERASE [3]: 97 u/L
- BLOOD UREA NITROGEN [3]: 13.5 mg/dL
- CARBON DIOXIDE [3]: 37.33 mmol/L
- CHLORIDE [3]: 102.33 MEQ/L
- CHOLESTEROL [3]: 83 mg/dL
- CREATINE PHOSPHOKINASE [3]: 365.33 u/L
- CREATININE [3]: 0.4 mg/dL
- GLUCOSE [3]: 189 mg/dL
- LACTATE DEHYDROGENASE [3]: 170.33 u/L
- LIPASE [3]: 10.67 u/L
- PHOSPHORUS [3]: 11.53 mg/dL
- POTASSIUM [3]: 5.63 MEQ/L
- SODIUM [3]: 144.33 MEQ/L
- TOTAL BILIRUBIN [3]: 0.4 mg/dL
- TOTAL PROTEIN [3]: 6.27 G/DL
- URIC ACID [3]: 0.87 mg/dL
- ABSOLUTE BASOPHIL [4]: 10 cells/µL
- ABSOLUTE EOSINOPHIL [4]: 23.3 cells/µL
- ABSOLUTE LYMPHOCYTE [4]: 4230 cells/µL
- ABSOLUTE MONOCYTE [4]: 80 cells/µL
- BASOPHIL [4]: 0.2%
- EOSINOPHIL [4]: 0.5%
- ERYTHROCYTE COUNT [4]: 6.97 x10E6/uL
- HEMATOCRIT [4]: 46.93%
- HEMOGLOBIN [4]: 15 G/DL
- LEUKOCYTE COUNT [4]: 5.04 x10E3/uL
- LYMPHOCYTE [4]: 83.5%
- MEAN CORPUSCULAR HEMOGLOBIN [4]: 21.5 pg
- MEAN CORPUSCULAR HEMOGLOBIN CONCENTRATION [4]: 31.97 G/DL
- MEAN CORPUSCULAR VOLUME [4]: 67.33 fL
- MONOCYTE [4]: 1.67%
- NEUTROPHIL [4]: 13.93%
- PLATELET COUNT [4]: 1227 x10E3/uL
- ALANINE AMINOTRANSFERASE [4]: 45.33 u/L
- ALBUMIN [4]: 3.87 G/DL
- ALKALINE PHOSPHATASE [4]: 421.33 u/L
- ASPARTATE AMINOTRANSFERASE [4]: 99.33 u/L
- BLOOD UREA NITROGEN [4]: 12.67 mg/dL
- CARBON DIOXIDE [4]: 34.67 mmol/L
- CHLORIDE [4]: 103 MEQ/L
- CHOLESTEROL [4]: 65.67 mg/dL
- CREATINE PHOSPHOKINASE [4]: 827.67 u/L
- CREATININE [4]: 0.5 mg/dL
- GLUCOSE [4]: 188.67 mg/dL
- LACTATE DEHYDROGENASE [4]: 235.33 u/L
- LIPASE [4]: 15.67 u/L
- PHOSPHORUS [4]: 13.87 mg/dL
- POTASSIUM [4]: 6 MEQ/L
- SODIUM [4]: 142.67 MEQ/L
- TOTAL BILIRUBIN [4]: 0.8 mg/dL
- TOTAL PROTEIN [4]: 6.33 G/DL
- URIC ACID [4]: 0.7 mg/dL
